{"source": "ChEMBL document CHEMBL4431298", "about": "(Medchemcomm, 2016)", "assay_type_in_all_cases": "cell-based", "key": {"Ferroportin [1]": {"target": "T1, Ferroportin (Homo sapiens, UniProt Q9NP59)", "T1 sequence (Q9NP59 whole entry)": "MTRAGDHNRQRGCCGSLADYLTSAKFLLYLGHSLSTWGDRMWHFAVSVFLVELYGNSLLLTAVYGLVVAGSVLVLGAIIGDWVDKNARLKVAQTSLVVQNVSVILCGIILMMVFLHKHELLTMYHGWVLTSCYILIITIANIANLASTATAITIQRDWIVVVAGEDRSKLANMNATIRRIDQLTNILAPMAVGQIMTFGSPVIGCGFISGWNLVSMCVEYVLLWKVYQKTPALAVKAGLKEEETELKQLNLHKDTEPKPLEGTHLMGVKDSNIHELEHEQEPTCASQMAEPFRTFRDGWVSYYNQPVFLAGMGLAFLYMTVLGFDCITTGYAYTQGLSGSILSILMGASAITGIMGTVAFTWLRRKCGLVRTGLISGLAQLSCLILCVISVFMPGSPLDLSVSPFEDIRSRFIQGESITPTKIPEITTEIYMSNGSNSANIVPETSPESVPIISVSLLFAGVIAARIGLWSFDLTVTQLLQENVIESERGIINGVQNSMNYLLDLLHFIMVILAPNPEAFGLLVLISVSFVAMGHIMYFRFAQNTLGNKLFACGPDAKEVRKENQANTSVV", "test": "(§1) Inhibition of recombinant human SLC40A1 expressed in human T-REx-293 cells assessed as reduction in ferroportin internalization incubated for 20 hrs by luciferase reporter gene assay"}, "[2]": {"target": "T2, Ferroportin (Homo sapiens) (UniProt Q9NP59)", "T2 sequence (whole entry)": "T1 sequence (Q9NP59 whole entry)", "test": "Binding affinity to recombinant human C-terminal nano luciferase-tagged SLC40A1 expressed in human T-REx-293 cells assessed as internalization of compound-ferroportin conjugate at 0.0001 to 0.01 mg/ml incubated for 20 hrs measured at 549 nanometer by Hoechst staining based cellomics arrayscan imaging analysis"}, "[3]": {"target": "T2, Ferroportin (Homo sapiens)", "test": "as §1"}, "[4]": {"target": "T2, Ferroportin (Homo sapiens)", "test": "(§2) Inhibition of recombinant human C-terminal nano luciferase-tagged SLC40A1 expressed in human T-REx-293 cells assessed as ferroportin internalization incubated for 20 hrs measured at 459 nanometer by Hoechst staining based cellomics arrayscan imaging analysis"}, "Ferroportin [5]": {"target": "T1, Ferroportin", "test": "as §2"}, "Ferroportin [6]": {"target": "T1, Ferroportin", "test": "Inhibition of human GFP-tagged SLC40A1 expressed in HEK293 cells assessed as ferroportin internalization by fluorescence microscopic analysis"}, "[7]": {"target": "T2, Ferroportin (Homo sapiens)", "test": "Inhibition of recombinant human SLC40A1 expressed in human T-REx-293 cells exposed to 4 hrs of doxycycline induction assessed as reduction in ferroportin internalization incubated for 20 hrs by luciferase reporter gene assay relative to control", "conditions": "concentration not given here"}, "[8]": {"target": "T2, Ferroportin (Homo sapiens)", "test": "Inhibition of recombinant human C-terminal nano luciferase-tagged SLC40A1 expressed in human T-REx-293 cells assessed as decrease in 55Fe-apotransferrin export at 10 uM preincubated for 24 hrs followed by export buffer and compound addition measured after 5 mins by scintillation counting method"}, "[9]": {"target": "T2, Ferroportin (Homo sapiens)", "test": "Inhibition of recombinant human SLC40A1 expressed in human T-REx-293 cells exposed to >4 hrs of doxycycline induction assessed as reduction in ferroportin internalization incubated for 20 hrs by luciferase reporter gene assay relative to control", "conditions": "concentration not given here"}}, "note": "The source made the active and inactive calls. No cut-off for these calls is given here.", "data": [{"compound": "CCCCCCCCCCCCCCCC(=O)NCCCOCCOCCOCCCNC(=O)C[C@H](Cc1ccccc1)NC(=O)[C@H](CCCNC(=N)N)NC(=O)[C@H](CS)NC(=O)[C@H](CCCNC(=N)N)NC(=O)C[C@@H]1CCCN1C(=O)[C@@H](NC(=O)[C@H](Cc1c[nH]cn1)NC(=O)[C@@H](NC(=O)CNCC(=O)O)[C@@H](C)O)C(c1ccccc1)c1ccccc1", "values": [{"measurement": "EC50", "setting": "Ferroportin [1]", "value": 21, "unit": "nM"}]}, {"compound": "CC[C@H](C)[C@H](NC(=O)[C@H](CS)NC(=O)[C@@H](NC(=O)[C@@H]1CCCN1C(=O)[C@H](Cc1ccccc1)NC(=O)[C@H](Cc1c[nH]cn1)NC(=O)[C@@H](NC(=O)[C@H](CC(=O)O)NC(C)=O)[C@@H](C)O)[C@@H](C)CC)C(=O)N[C@@H](Cc1ccccc1)C(=O)NCCOCCOCCOCC(=O)N[C@H](CCCNC(=N)N)C(=O)N[C@H](CCCNC(=N)N)C(=O)N[C@H](CCCCNC(=O)CCCCCNC(=O)CCC1=C(C)C2=Cc3ccc(-c4ccc(OC)cc4)n3[B-](F)(F)[N+]2=C1C)C(=O)O", "values": [{"measurement": "Activity", "setting": "[2]", "value": "Active"}, {"measurement": "inhibition", "setting": "[3]", "value": "Dose-dependent effect"}, {"measurement": "EC50", "setting": "Ferroportin [1]", "value": 347, "unit": "nM"}, {"measurement": "inhibition", "setting": "[4]", "value": "Dose-dependent effect"}, {"measurement": "EC50", "setting": "Ferroportin [5]", "value": 1860, "unit": "nM"}]}, {"compound": "CCCCCCCCCCCCCCCC(=O)NCCCOCCOCCOCCCNC(=O)C[C@H](Cc1ccccc1)NC(=O)[C@H](CCCNC(=N)N)NC(=O)[C@@H](CS)NC(=O)[C@H](CCCNC(=N)N)NC(=O)C[C@@H]1CCCN1C(=O)[C@@H](NC(=O)[C@H](Cc1c[nH]cn1)NC(=O)[C@@H](NC(=O)CNCC(=O)O)[C@@H](C)O)C(c1ccccc1)c1ccccc1", "values": [{"measurement": "inhibition", "setting": "[3]", "value": "Dose-dependent effect"}]}, {"compound": "CC[C@H](C)[C@H](NC(=O)[C@H](CS)NC(=O)[C@@H](NC(=O)[C@@H]1CCCN1C(=O)[C@H](Cc1ccccc1)NC(=O)[C@H](Cc1cnc[nH]1)NC(=O)[C@@H](NC(=O)[C@H](CC(=O)O)NC(C)=O)[C@@H](C)O)[C@@H](C)CC)C(=O)N[C@@H](Cc1ccccc1)C(=O)O", "values": [{"measurement": "IC50", "setting": "Ferroportin [6]", "value": 76, "unit": "nM"}]}, {"compound": "CC[C@H](C)[C@@H]1NC(=O)[C@@H](NC(=O)[C@@H](NC(=O)[C@@H]2CCCN2C(=O)[C@H](Cc2ccccc2)NC(=O)[C@H](Cc2c[nH]cn2)NC(=O)[C@@H](NC(=O)[C@@H](N)CC(=O)O)[C@@H](C)O)[C@@H](C)CC)CSSC[C@@H](C(=O)N[C@@H](CCCCN)C(=O)N[C@H](C(=O)O)[C@@H](C)O)NC(=O)[C@@H]2CSSC[C@@H]3NC(=O)[C@@H]4CSSC[C@H](NC(=O)[C@H](Cc5ccccc5)NC1=O)C(=O)N[C@@H](CSSC[C@H](NC(=O)[C@H](CCCCN)NC(=O)[C@H](CO)NC(=O)[C@H](CCCNC(=N)N)NC(=O)[C@H](Cc1c[nH]cn1)NC3=O)C(=O)NCC(=O)N[C@@H](CCSC)C(=O)N2)C(=O)NCC(=O)N4", "values": [{"measurement": "EC50", "setting": "Ferroportin [1]", "value": 22, "unit": "nM"}]}, {"compound": "CC[C@H](C)[C@@H]1NC(=O)[C@H](NC(=O)[C@@H](NC(=O)[C@@H]2CCCN2C(=O)[C@H](Cc2ccccc2)NC(=O)[C@H](Cc2cnc[nH]2)NC(=O)[C@@H](NC(=O)[C@@H](N)CC(=O)O)[C@@H](C)O)[C@@H](C)CC)CSSC[C@@H](C(=O)N[C@@H](CCCCN)C(=O)N[C@H](C(=O)O)[C@@H](C)O)NC(=O)[C@@H]2CSSC[C@@H]3NC(=O)[C@@H]4CSSC[C@H](NC(=O)[C@H](Cc5ccccc5)NC1=O)C(=O)N[C@@H](CSSC[C@H](NC(=O)[C@H](CCCCN)NC(=O)[C@H](CO)NC(=O)[C@H](CCCNC(=N)N)NC(=O)[C@H](Cc1cnc[nH]1)NC3=O)C(=O)NCC(=O)N[C@@H](CCSC)C(=O)N2)C(=O)NCC(=O)N4", "values": [{"measurement": "inhibition", "setting": "[7]", "value": 50, "unit": "%"}, {"measurement": "inhibition", "setting": "[8]", "value": "Active"}, {"measurement": "inhibition", "setting": "[3]", "value": "Dose-dependent effect"}, {"measurement": "inhibition", "setting": "[9]", "value": 25, "unit": "%"}]}]}
